From patent US10934250B2, “Process for the preparation of a chelating agent” (TRADE CORPORATION INTERNATIONAL, S.A. UNIPERSONAL, priority 2015, dated 2021)

Assay: Stability constants of Fe3+ chelates by spectrophotometric titration
Format: physicochemical
Settings: for Stability constant, L + H^+ + Fe^3+ -> FeHL / Stability constant, L + Fe^3+ -> FeL / Stability constant, L + OH^- + Fe^3+ -> FeOHL: chelant agent:Fe^3+ 1:1, I=0.10M (NaCl), titration with 0.1 M NaOH pH 2.7 to 12.0, absorbance at 480 nm; for Stability constant, L + H^+ + Fe^3+ -> FeHL: FeHL predominant at pH <4.0; for Stability constant, L + Fe^3+ -> FeL: FeL predominant at pH 4 to 6.5; for Stability constant, L + OH^- + Fe^3+ -> FeOHL: FeOHL predominant at pH >6.5
Description: Stability constant of the Fe^3+ chelate compound of Example 4 (CRENEAHA) were determined spectrophotometrically by titration of a 2.22·10^−4 M (12.5 mg/L) and I=0.10M (NaCl) with 0.1 M NaOH from a pH of 2.7 to a pH of 12.0 and measuring the absorbance variation at 480 nm.
Stability constant of the Fe^3+ chelate compound of Example 2 (CREMEAHA) were determined spectrophotometrically by titration of a […] (12.5 mg/L) and I=0.10M (NaCl) with 0.1 M NaOH from a pH of 2.7 to a pH of 12.0 and measuring the absorbance variation at 480 nm.
Stability constants were determined minimizing the difference between calculated absorbance and experimental absorbance by varying the stability constants of Fe^3+. Every assay was repeated four times. The stability constant value for each compound is not dependent on the concentration of the solution used to carry out the spectrophotometric titration.

Stability constant, L + H^+ + Fe^3+ -> FeHL | Stability constant, L + Fe^3+ -> FeL | Stability constant, L + OH^- + Fe^3+ -> FeOHL | Stability of the Fe^3+ chelate compared with the Fe^3+ chelate of Example 2 (CREMEAHA) (particularly at high pH) | SMILES
33.9 | 28.6 | 21.2 |  | Cc1ccc(O)c(C(NCCO)C(=O)O)c1 (stereo not shown) [CREMEAHA]
37.5 | 33.4 | 26.9 | better stability | Cc1ccc(O)c(C(NCCNCCO)C(=O)O)c1 (stereo not shown) [CRENEAHA]
